# Measurements reported in patent US20230144211A1, “ANTIFOLATE LINKER-DRUGS AND ANTIBODY-DRUG CONJUGATES” (Byondis B.V., priority 2020, published 2023).
# Assays:
# FaDu cells = assay: In vitro cell viability assay (CellTiter-Glo, 6 days); type: cell-based; details: Homo sapiens, free antifolate drugs, Table 1d
# Procedure: (§1) FaDu, BxPC-3, HeLa, MV4-11, and RAJI cell lines were obtained from Deutsche Sammlung von Mikroorganismen und Zellkulturen (Leipzig, Germany). Jurkat NucLight Red cells were obtained from Essen BioScience Inc. (Ann Arbor, Mich., USA). SK-BR-3 and SK-OV-3 cells were cultured in McCoys 5A medium (Lonza; Walkersville, Md., USA) supplemented with 10% v/w Fetal Bovine Serum (FBS), Heat-inactivated (HI) (Gibco-Life Technologies; Carlsbad, Calif.) and 80 U/mL Pen/Strep (Gibco-Life Technologies), at 37° C. in a humidified incubator under 5% CO2 atmosphere. SW-620 cells were similarly maintained in RPMI 1640 medium (Lonza), containing 10% v/w FBS HI and 80 U/mL Pen/Strep. A-549 cells were similarly maintained in F-12K Nutrient Mixture (1×) (Gibco-Life Technologies) media supplemented with 80 U/mL Pen/Strep and 5% v/w FBS, which was Qualified (Q) (Gibco-Life Technologies). BT-474 and AU-565 cells were similarly maintained in RPMI 1640 medium (Lonza), containing 10% v/w FBS, which was Qualified (Q) (Gibco-Life Technologies), and 80 U/mL Pen/Strep. […] Jurkat NucLight Red cells were similarly maintained in RPMI 1640 medium (Lonza), containing 10% v/w FBS HI, 80 U/mL Pen/Strep and 0.5 μg/mL Puromycin (Gibco-Life Technologies). FaDu cells were cultured in EMEM medium (Lonza) supplemented with 10% v/w FBS HI (Gibco-Life Technologies), 1× GlutaMAX (Gibco-Life Technologies), and 80 U/mL Pen/Strep (Gibco-Life Technologies), at 37° C. in a humidified incubator under 5% CO2 atmosphere.
# (§2) After an overnight incubation, 10 serial log 10 dilutions of the free drugs were made in DMSO (Sigma-Aldrich). These free drug dose-response curves were 10-times further diluted in complete growth medium. For the ADCs according to the invention 10 serial log 10 dilutions were made in complete growth medium. 10 μL of a composition comprising a free drug or an ADC according to the invention was added to the assay plate (final DMSO content for free drugs was 1%). […] […] Percentage cell survival was calculated by dividing the measured luminescence for each free drug or ADC according to the concentration with the average mean of untreated cells (1% or 0.1% DMSO control (for free drugs) or 100% complete growth medium (for ADCs)) multiplied by 100.
# (§3) Curves were fitted by non-linear regression using the sigmoidal dose-response equation with variable slope (four parameters) using curve-fitting software (GraphPad Prism, version 9.4.0 for Windows, GraphPad, San Diego, Calif. or Electronic Laboratory Notebook (ELN) add-in BioAssay, version 19.1.0.0218, Perkin Elmer, Waltham, Mass.). Relative IC50 values were calculated as the concentration that gives a response halfway between bottom and top of the curve, when using a 4-parameter logistic fit. Data were reported as mean IC50 value of at least one experiment performed in duplicate.
# BxPC-3 cells = assay: as above; type: cell-based; details: Homo sapiens, free antifolate drugs, Table 1d
# Procedure: as §1, §2, §3
# SK-BR-3 cells = assay: as above; type: cell-based, human; details: Homo sapiens
# Procedure: as §1, §2, §3
# [1] = system: Jurkat NucLight Red cells; assay: as above; type: cell-based, human; details: Homo sapiens, Jurkat, free antifolate drugs
# Procedure: as §1
# (§4) After an overnight incubation, 10 serial log 10 dilutions of the free drugs were made in DMSO (Sigma-Aldrich). These free drug dose-response curves were 10-times further diluted in complete growth medium. For the ADCs according to the invention 10 serial log 10 dilutions were made in complete growth medium. 10 μL of a composition comprising a free drug or an ADC according to the invention was added to the assay plate (final DMSO content for free drugs was 1%). […] Cell viability was assessed after 6 days using a luminescent assay kit (CellTiter-Glo™ (CTG), Promega Corporation) according to the manufacturer's instructions. Percentage cell survival was calculated by dividing the measured luminescence for each free drug or ADC according to the concentration with the average mean of untreated cells (1% or 0.1% DMSO control (for free drugs) or 100% complete growth medium (for ADCs)) multiplied by 100.
# as §3
# BT-474 cells = assay: as above; type: cell-based; details: Homo sapiens, free antifolate drugs, Table 1a, # no full dose-response curve
# Procedure: as §1, §2, §3
# Human tumor cell lines = assay: In vitro cell viability assays, free antifolate drugs, overall comparison; type: cell-based; details: compared with talotrexin or parent compound
# Procedure: (§5) Human tumor cell lines SK-BR-3, SW-620, A-549, BT-474, Jurkat Clone E6-1, AU-565, and SK-OV-3 were obtained from American Type Culture Collection (Rockville, Md., USA). FaDu, BxPC-3, HeLa, MV4-11, and RAJI cell lines were obtained from Deutsche Sammlung von Mikroorganismen und Zellkulturen (Leipzig, Germany). Jurkat NucLight Red cells were obtained from Essen BioScience Inc. (Ann Arbor, Mich., USA). SK-BR-3 and SK-OV-3 cells were cultured in McCoys 5A medium (Lonza; Walkersville, Md., USA) supplemented with 10% v/w Fetal Bovine Serum (FBS), Heat-inactivated (HI) (Gibco-Life Technologies; Carlsbad, Calif.) and 80 U/mL Pen/Strep (Gibco-Life Technologies), at 37° C. in a humidified incubator under 5% CO2 atmosphere. SW-620 cells were similarly maintained in RPMI 1640 medium (Lonza), containing 10% v/w FBS HI and 80 U/mL Pen/Strep. A-549 cells were similarly maintained in F-12K Nutrient Mixture (1×) (Gibco-Life Technologies) media supplemented with 80 U/mL Pen/Strep and 5% v/w FBS, which was Qualified (Q) (Gibco-Life Technologies). BT-474 and AU-565 cells were similarly maintained in RPMI 1640 medium (Lonza), containing 10% v/w FBS, which was Qualified (Q) (Gibco-Life Technologies), and 80 U/mL Pen/Strep. Jurkat Clone E6-1, BxPC-3, HeLa, MV4-11, and RAJI cells were similarly maintained in RPMI 1640 medium (Lonza), containing 10% v/w FBS HI and 80 U/mL Pen/Strep. Jurkat NucLight Red cells were similarly maintained in RPMI 1640 medium (Lonza), containing 10% v/w FBS HI, 80 U/mL Pen/Strep and 0.5 μg/mL Puromycin (Gibco-Life Technologies). FaDu cells were cultured in EMEM medium (Lonza) supplemented with 10% v/w FBS HI (Gibco-Life Technologies), 1× GlutaMAX (Gibco-Life Technologies), and 80 U/mL Pen/Strep (Gibco-Life Technologies), at 37° C. in a humidified incubator under 5% CO2 atmosphere.
# as §4, with “Cells in complete growth medium were plated in 96-well plates (90 μL/well) and incubated at 37° C., 5% CO2 at the following cell densities: 6500 SK-BR-3, 4000 SW-620, 2500 A-549, 10000 BT-474, 3000 Jurkat Clone E6-1, 5000 AU-565, 1250 FaDu, 1250 BxPC-3, 1000 HeLa, 7500 MV4-11, 1000 RAJI, 3000 Jurkat NucLight Red, and 4000 SK-OV-3 cells per well. After” for “After”
# as §3
# A-549 cells = assay: In vitro cell viability assay (CellTiter-Glo, 6 days); type: cell-based; details: Homo sapiens, A549; free antifolate drugs, Table 1a; $ steep hillslope
# Procedure: as §5
# as §4, with “Cells in complete growth medium were plated in 96-well plates (90 μL/well) and incubated at 37° C., 5% CO2 at the following cell densities: 6500 SK-BR-3, 4000 SW-620, 2500 A-549, 10000 BT-474, 3000 Jurkat Clone E6-1, 5000 AU-565, 1250 FaDu, 1250 BxPC-3, 1000 HeLa, 7500 MV4-11, 1000 RAJI, 3000 Jurkat NucLight Red, and 4000 SK-OV-3 cells per well. After” for “After”
# as §3
# RAJI cells = assay: as above; type: cell-based; details: Homo sapiens, free antifolate drugs, Table 1d
# Procedure: as §5
# as §4, with “Cells in complete growth medium were plated in 96-well plates (90 μL/well) and incubated at 37° C., 5% CO2 at the following cell densities: 6500 SK-BR-3, 4000 SW-620, 2500 A-549, 10000 BT-474, 3000 Jurkat Clone E6-1, 5000 AU-565, 1250 FaDu, 1250 BxPC-3, 1000 HeLa, 7500 MV4-11, 1000 RAJI, 3000 Jurkat NucLight Red, and 4000 SK-OV-3 cells per well. After” for “After”
# as §3
# HeLa cells = assay: as above; type: cell-based; details: Homo sapiens, free antifolate drugs, Table 1d
# Procedure: as §5
# as §4, with “Cells in complete growth medium were plated in 96-well plates (90 μL/well) and incubated at 37° C., 5% CO2 at the following cell densities: 6500 SK-BR-3, 4000 SW-620, 2500 A-549, 10000 BT-474, 3000 Jurkat Clone E6-1, 5000 AU-565, 1250 FaDu, 1250 BxPC-3, 1000 HeLa, 7500 MV4-11, 1000 RAJI, 3000 Jurkat NucLight Red, and 4000 SK-OV-3 cells per well. After” for “After”
# as §3
# MV4-11 cells = assay: as above; type: cell-based; details: Homo sapiens, free antifolate drugs, Table 1d
# Procedure: as §5
# as §4, with “Cells in complete growth medium were plated in 96-well plates (90 μL/well) and incubated at 37° C., 5% CO2 at the following cell densities: 6500 SK-BR-3, 4000 SW-620, 2500 A-549, 10000 BT-474, 3000 Jurkat Clone E6-1, 5000 AU-565, 1250 FaDu, 1250 BxPC-3, 1000 HeLa, 7500 MV4-11, 1000 RAJI, 3000 Jurkat NucLight Red, and 4000 SK-OV-3 cells per well. After” for “After”
# as §3
# AU-565 cells = assay: as above; type: cell-based, human; details: Homo sapiens, AU565, free antifolate drugs
# Procedure: as §1, §2, §3
# SW-620 cells = assay: as above; type: cell-based; details: Homo sapiens, free antifolate drugs, Table 1a
# Procedure: as §1, §4, §3
# SK-OV-3 cells = assay: as above; type: cell-based; details: Homo sapiens, free antifolate drugs, Table 1a
# Procedure: as §1, §4, §3
# [2] = SK-BR-3, 24 h, free antifolate drugs, Table 1d
# [3] = SK-BR-3, free antifolate drugs, Table 1a
smiles,measurement,setting,value
"Nc1ccc(C(=O)NCCC[C@H](NC(=O)c2ccc(CCc3ccc4nc(N)nc(N)c4c3F)cc2)C(=O)O)c(-c2nnn[nH]2)c1 [XG2, (S)-5-(4-Amino-2-(1H-tetrazol-5-yl)benzamido)-2-(4-(2-(2,4-diamino-5-fluoroquinazolin-6-yl)ethyl)benzamido)pentanoic acid]",IC50,FaDu cells,0.31 nM
same,IC50,BxPC-3 cells,0.92 nM
same,IC50,SK-BR-3 cells; [2],0.9 nM
same,IC50,"[1]; 24 h, Table 1d",0.87 nM
"Nc1ccc(C(=O)NCCC[C@H](NC(=O)c2ccc(CCc3ccc4nc(N)nc(N)c4c3)cc2)C(=O)O)cc1 [XJ4, (S)-5-(4-Aminobenzamido)-2-(4-(2-(2,4-diaminoquinazolin-6-yl)ethyl)benzamido)pentanoic acid]",IC50,BT-474 cells,8.1 nM
same,"antifolate activity, comparison in words",Human tumor cell lines,less active than talotrexin
same,IC50,A-549 cells,~10 nM
same,IC50,SK-BR-3 cells; [3],3.4 nM
"Nc1ccc(C(=O)NCCC[C@H](NC(=O)c2ccc(CCc3ccc4nc(N)nc(N)c4c3Cl)cc2)C(=O)O)c(-c2nnn[nH]2)c1 [XT123, (S)-5-(4-amino-2-(1H-tetrazol-5-yl)benzamido)-2-(4-(2-(2,4-diamino-5-chloroquinazolin-6-yl)ethyl)benzamido)pentanoic acid]",IC50,FaDu cells,0.19 nM
same,IC50,BxPC-3 cells,0.71 nM
same,IC50,RAJI cells,0.6 nM
same,IC50,HeLa cells,0.11 nM
same,IC50,MV4-11 cells,0.62 nM
same,IC50,AU-565 cells; Table 1c,0.35 nM
same,IC50,SK-BR-3 cells; [2],0.63 nM
same,IC50,"SK-BR-3 cells; SK-BR-3, free antifolate drugs, Table 1c",0.44 nM
same,IC50,"[1]; 24 h, Table 1d",0.79 nM
same,IC50,[1]; Table 1c,0.6 nM
"Nc1ccc(C(=O)NCCC[C@H](NC(=O)c2ccc(CCc3cnc4nc(N)nc(N)c4n3)cc2)C(=O)O)cc1 [XX7, (S)-5-(4-Aminobenzamido)-2-(4-(2-(2,4-diaminopteridin-6-yl)ethyl)benzamido) pentanoic acid]","antifolate activity, comparison in words",Human tumor cell lines,less active than talotrexin
same,IC50,A-549 cells,29 nM
same,IC50,SK-BR-3 cells; [3],6.5 nM
same,IC50,SW-620 cells,2.8 nM
"CN(Cc1cnc2nc(N)nc(N)c2n1)c1ccc(C(=O)N[C@@H](CCCNC(=O)c2ccc(N)cc2)C(=O)O)cc1 [XX12, (S)-5-(4-aminobenzamido)-2-(4-(((2,4-diaminopteridin-6-yl)methyl)(methyl)amino)benzamido) pentanoic acid]","antifolate activity, comparison in words",Human tumor cell lines,less active than talotrexin
same,IC50,A-549 cells,42 nM
same,IC50,SK-BR-3 cells; [3],17 nM
same,IC50,SW-620 cells,7.5 nM
"Nc1ccc(C(=O)NCCC[C@H](NC(=O)c2ccc(NCc3cnc4nc(N)nc(N)c4n3)cc2)C(=O)O)c(-c2nn[nH]n2)c1 [XX35, (S)-5-(4-Amino-2-(2H-tetrazol-5-yl)benzamido)-2-(4-(((2,4-diaminopteridin-6-yl)methyl)amino)benzamido)pentanoic acid]",IC50,BT-474 cells,4.3 nM
same,IC50,A-549 cells,~2.5 nM
same,IC50,AU-565 cells; Table 1b,0.62 nM
same,IC50,SK-BR-3 cells; [3],1.3 nM
same,IC50,"SK-BR-3 cells; SK-BR-3, free antifolate drugs, Table 1b, # no full dose-response curve",1.03 nM
same,IC50,[1]; Table 1b,1.4 nM
"Nc1ccc(C(=O)NCCC[C@H](NC(=O)c2ccc(NCc3cnc4nc(N)nc(N)c4n3)cc2)C(=O)O)c(S(=O)(=O)O)c1 [XX37, (S)-5-(4-Amino-2-sulfobenzamido)-2-(4-(((2,4-diaminopteridin-6-yl)methyl)amino)benzamido) pentanoic acid]",IC50,BT-474 cells,7.5 nM
same,IC50,A-549 cells,4 nM
same,IC50,SK-BR-3 cells; [3],2.4 nM
"N#Cc1cc(N)ccc1-c1cn(CCC[C@H](NC(=O)c2ccc(NCc3cnc4nc(N)nc(N)c4n3)cc2)C(=O)O)nn1 [XX47, (S)-5-(4-(4-Amino-2-cyanophenyl)-1H-1,2,3-triazol-1-yl)-2-(4-(((2,4-diaminopteridin-6-yl)methyl)amino)benzamido)pentanoic acid]",IC50,BT-474 cells,~100 nM
same,IC50,SK-BR-3 cells; [3],~14 nM
same,IC50,SK-OV-3 cells,> 100 nM
